Legend:
[1] = test system: A/Udorn/72 (H3N2) virus; test: Plaque assay in MDCK cells: EC50 by reduction of plaque number; format: cell-based, influenza virus; conditions: MDCK
[2] = test system: pseudoHIV particles; test: HIV pseudovirus assay in X4 cells (luciferase); format: cell-based, HIV-1; conditions: Human immunodeficiency virus 1, read-out: HIV EC50
Experimental: A plasmid coding the HIV-1 genome, deleting the envelope protein gene and with a luciferase gene inserted, and a plasmid coding the envelope protein gene were cotransfected into 293T cells. After 48 hr, the supernatant containing pseudoHlV particles was collected for transducing assay. In 96 well plates, X4 cells were plated and incubated till confluent. The pseudoHlV particles were incubated with various concentrations of inhibitor compounds for one hour in room temperature. The particles were then used for tranducing X4 cells. The transduced X4 cells were lysed after 48 hr and the luciferase activity was measured in a luminometer.

## COc1cc(OC)cc(-c2cc(CCCNC(=O)[C@@H](N)Cc3ccc(O)cc3)c(/C=C3\SC(=S)N(C4CC5CCC4C5)C3=O)o2)c1 (stereo partly shown) [Compound 167]
[1]
  EC50: < 100 nM
[2]
  EC50: < 100 nM

## COc1cc(O)cc(-c2cc(CCCO)c(/C=C3\SC(=S)N(C4CC5CCC4C5)C3=O)o2)c1 (stereo not shown) [Compound 101]
[1]
  EC50: < 100 nM
[2]
  EC50: < 100 nM

## COc1cc(OC)cc(-c2cc(CCC(=O)O)c(/C=C3\SC(=S)N(C4C5CC6CC(C5)CC4C6)C3=O)o2)c1 (stereo not shown) [Compound 129]
[1]
  EC50: < 100 nM
[2]
  EC50: < 100 nM

## NCCCc1cc(-c2ccc(Cl)cc2)oc1/C=C1\SC(=S)N(C2CC3CCC2C3)C1=O (stereo not shown) [Compound 124]
[1]
  EC50: < 100 nM
[2]
  EC50: < 100 nM

## CCOC(=O)COc1cc(-c2ccc(/C=C3\SC(=S)N(C4C5CC6CC(C5)CC4C6)C3=O)o2)ccc1OC (stereo not shown) [Compound 21]
[1]
  EC50: < 100 nM
[2]
  EC50: < 100 nM

## O=C1/C(=C/c2oc(-c3ccccc3)cc2CO)SC(=S)N1C1C2CC3CC(C2)CC1C3 (stereo not shown) [Compound 92]
[1]
  EC50: < 100 nM
[2]
  EC50: 100 to 250 nM

## COc1cc(O)cc(-c2cc(CCCN)c(/C=C3\SC(=S)N(C4CC5CCC4C5)C3=O)o2)c1 (stereo not shown) [Compound 122]
[1]
  EC50: < 100 nM
[2]
  EC50: < 100 nM

## COc1cc(OC)cc(-c2cc(CCCNC(=O)[C@H](CC(N)=O)NC(=O)OC(C)(C)C)c(/C=C3\SC(=S)N(C4CC5CCC4C5)C3=O)o2)c1 (stereo partly shown) [Compound 156]
[1]
  EC50: < 100 nM
[2]
  EC50: < 100 nM

## CCOC(=O)COc1cc(-c2ccc(/C=C3\SC(=S)N(C4C5CC6CC(C5)CC4C6)C3=O)o2)cc(OC)c1OC (stereo not shown) [Compound 30]
[1]
  EC50: < 100 nM
[2]
  EC50: < 100 nM

## COc1cc(O)cc(-c2cc(CCCN)c(/C=C3\SC(=S)N(C4C5CC6CC(C5)CC4C6)C3=O)o2)c1 (stereo not shown) [Compound 123]
[1]
  EC50: < 100 nM
[2]
  EC50: < 100 nM

## COC(=O)c1cc(-c2ccc(/C=C3\SC(=S)N(C4CC5CCC4C5)C3=O)o2)cc(OC)c1OC (stereo not shown) [Compound 31]
[1]
  EC50: < 100 nM
[2]
  EC50: < 100 nM

## NCCCc1cc(-c2ccc(Cl)cc2)oc1/C=C1\SC(=S)N(C2C3CC4CC(C3)CC2C4)C1=O (stereo not shown) [Compound 125]
[1]
  EC50: < 100 nM
[2]
  EC50: < 100 nM

## COc1cc(OC)cc(-c2cc(CCCNC(=O)[C@@H](N)Cc3ccccc3)c(/C=C3\SC(=S)N(C4CC5CCC4C5)C3=O)o2)c1 (stereo partly shown) [Compound 171]
[1]
  EC50: < 100 nM
[2]
  EC50: < 100 nM

## COc1cc(O)cc(-c2cc(CCCC(C(=O)O)C(=O)O)c(/C=C3\SC(=S)N(C4CC5CCC4C5)C3=O)o2)c1 (stereo not shown) [Compound 137]
[2]
  EC50: < 100 nM

## COc1cc(OC)cc(-c2cc(CCCCO)c(/C=C3\SC(=S)N(C4CC5CCC4C5)C3=O)o2)c1 (stereo not shown) [Compound 113]
[1]
  EC50: < 100 nM
[2]
  EC50: < 100 nM

## COc1cc(O)cc(-c2ccc(/C=C3\SC(=S)N(C4CC5CCC4C5)C3=O)o2)c1 (stereo not shown) [Compound 17]
[1]
  EC50: < 100 nM
[2]
  EC50: < 100 nM

## CCOC(=O)COc1cc(-c2ccc(/C=C3\SC(=S)N(C4CC5CCC4C5)C3=O)o2)cc(OC)c1OC (stereo not shown) [Compound 29]
[1]
  EC50: < 100 nM
[2]
  EC50: < 100 nM

## COc1cc(OC)cc(-c2cc(CCCOC(=O)[C@@H](N)Cc3ccc(O)cc3)c(/C=C3\SC(=S)N(C4CC5CCC4C5)C3=O)o2)c1 (stereo partly shown) [Compound 151]
[1]
  EC50: < 100 nM
[2]
  EC50: < 100 nM

## COc1cc(OCC(=O)N2CCC[C@H]2C(=O)O)cc(-c2ccc(/C=C3\SC(=S)N(C4CC5CCC4C5)C3=O)o2)c1 (stereo partly shown) [Compound 84]
[1]
  EC50: < 100 nM
[2]
  EC50: < 100 nM

## COc1cc(O)cc(-c2cc(CCCO)c(/C=C3\SC(=S)N(C4C5CC6CC(C5)CC4C6)C3=O)o2)c1 (stereo not shown) [Compound 102]
[1]
  EC50: < 100 nM
[2]
  EC50: < 100 nM

## COc1cc(O)cc(-c2cc(CCCNC(=N)N)c(/C=C3\SC(=S)N(C4CC5CCC4C5)C3=O)o2)c1 (stereo not shown) [Compound 194]
[1]
  EC50: < 100 nM
[2]
  EC50: < 100 nM

## COc1cc(OC)cc(-c2ccc(/C=C3\SC(=S)N(C4CC5CCC4C5)C3=O)o2)c1 (stereo not shown) [Compound 19]
[1]
  EC50: < 100 nM
[2]
  EC50: < 100 nM

## COc1cc(OCC(=O)O)cc(-c2ccc(/C=C3\SC(=S)N(C4CC5CCC4C5)C3=O)o2)c1 (stereo not shown) [Compound 37]
[1]
  EC50: < 100 nM
[2]
  EC50: < 100 nM

## COC(=O)c1cc(-c2ccc(/C=C3\SC(=S)N(C4C5CC6CC(C5)CC4C6)C3=O)o2)cc(OC)c1OC (stereo not shown) [Compound 32]
[1]
  EC50: < 100 nM
[2]
  EC50: < 100 nM

## COc1ccc(-c2ccc(/C=C3\SC(=S)N(C4CC5CCC4C5)C3=O)o2)cc1C(=O)N[C@@H](Cc1ccc(O)cc1)C(=O)O (stereo partly shown) [Compound 86]
[1]
  EC50: < 100 nM
[2]
  EC50: < 100 nM

## COc1cc(OC)cc(-c2cc(CCCO)c(/C=C3\SC(=S)N(C4C5CC6CC(C5)CC4C6)C3=O)o2)c1 (stereo not shown) [Compound 95]
[1]
  EC50: < 100 nM
[2]
  EC50: < 100 nM

## COc1cc(OC)cc(-c2cc(CCCn3nnc(CO)c3CO)c(/C=C3\SC(=S)N(C4C5CC6CC(C5)CC4C6)C3=O)o2)c1 (stereo not shown) [Compound 201, (Z)-3-(adamantan-2-yl)-5-((3-(3-(4′,5′-bis(hydroxymethyl)-1H-1′,2′,3′-triazol-1-yl)propyl)-5-(3′,5′-dimetho-xyphenyl)furan-2-yl)methylene)-2-thioxothiazolidin-4-one]
[1]
  EC50: < 100 nM
[2]
  EC50: < 100 nM

## O=C1/C(=C/c2oc(-c3ccc(F)cc3)cc2CCCO)SC(=S)N1C1C2CC3CC(C2)CC1C3 (stereo not shown) [Compound 103]
[1]
  EC50: < 100 nM
[2]
  EC50: < 100 nM

## COc1cc(OC)cc(-c2cc(CCCOC(=O)[C@H](CC(N)=O)NC(=O)OC(C)(C)C)c(/C=C3\SC(=S)N(C4CC5CCC4C5)C3=O)o2)c1 (stereo partly shown) [Compound 138]
[1]
  EC50: < 100 nM
[2]
  EC50: < 100 nM

## COc1cc(OC)cc(-c2cc(CCCNC(=O)[C@H](Cc3ccccc3)NC(=O)OC(C)(C)C)c(/C=C3\SC(=S)N(C4CC5CCC4C5)C3=O)o2)c1 (stereo partly shown) [Compound 157]
[1]
  EC50: < 100 nM
[2]
  EC50: < 100 nM

## COc1cc(OCC(=O)N[C@@H](Cc2ccccc2)C(=O)O)cc(-c2ccc(/C=C3\SC(=S)N(C4CC5CCC4C5)C3=O)o2)c1 (stereo partly shown) [Compound 83]
[1]
  EC50: < 100 nM
[2]
  EC50: < 100 nM

## COc1cc(OC)cc(-c2cc(/C=C/C(=O)O)c(/C=C3\SC(=S)N(C4CC5CCC4C5)C3=O)o2)c1 (stereo not shown) [Compound 130]
[1]
  EC50: < 100 nM
[2]
  EC50: < 100 nM

## COc1ccc(-c2ccc(/C=C3\SC(=S)N(C4C5CC6CC(C5)CC4C6)C3=O)o2)cc1O (stereo not shown) [Compound 23]
[1]
  EC50: < 100 nM
[2]
  EC50: < 100 nM

## COc1cc(OC)cc(-c2cc(CCCNC(=O)[C@@H](N)c3ccccc3)c(/C=C3\SC(=S)N(C4CC5CCC4C5)C3=O)o2)c1 (stereo partly shown) [Compound 170]
[1]
  EC50: < 100 nM
[2]
  EC50: < 100 nM

## COc1cc(O)cc(-c2cc(CCCNC(=O)[C@@H](N)CC(N)=O)c(/C=C3\SC(=S)N(C4CC5CCC4C5)C3=O)o2)c1 (stereo partly shown) [Compound 174]
[1]
  EC50: < 100 nM
[2]
  EC50: < 100 nM

## COc1cc(OC)cc(-c2ccc(/C=C3\SC(=S)N(C4C5CC6CC(C5)CC4C6)C3=O)o2)c1 (stereo not shown) [Compound 20]
[1]
  EC50: < 100 nM
[2]
  EC50: < 100 nM

## COc1cc(OC)cc(-c2cc(CCCCO)c(/C=C3\SC(=S)N(C4C5CC6CC(C5)CC4C6)C3=O)o2)c1 (stereo not shown) [Compound 114]
[1]
  EC50: < 100 nM
[2]
  EC50: < 100 nM

## COc1cc(OC)cc(-c2cc(CCCN)c(/C=C3\SC(=S)N(C4C5CC6CC(C5)CC4C6)C3=O)o2)c1 (stereo not shown) [Compound 121]
[1]
  EC50: < 100 nM
[2]
  EC50: < 100 nM

## CCOC(=O)COc1cc(-c2ccc(/C=C3\SC(=S)N(C4CC5CCC4C5)C3=O)o2)ccc1OC (stereo not shown) [Compound 22]
[1]
  EC50: < 100 nM
[2]
  EC50: < 100 nM

## COc1cc(OC)cc(-c2cc(CCCN)c(/C=C3\SC(=S)N(C4CC5CCC4C5)C3=O)o2)c1 (stereo not shown) [Compound 120]
[1]
  EC50: < 100 nM
[2]
  EC50: < 100 nM
